Read-outs that look alike come from different tables or passages of the source.
Tests used:
[1] = system: Stage II nauplii of Balanus amphitrite; experiment: barnacle toxicity assay; type: in vivo
Description: (§1) Pure compounds were suspended in DMSO and sonicated to obtain a stock solution of 50 mg ml^−1 in DMSO. This stock solution is stored at −20° C. in 4 ml amber screw cap vials. For the bioassays, a small volume of stock solution was added to 1 μm filtered seawater in a glass scintillation vial. This suspension was then sonicated around 10 minutes. Serial dilutions were generated to the required range of concentrations. Serial dilution of the equivalent amounts of DMSO in seawater was used as the control.
(§2) The barnacle bioassay method used follows from the method first introduced by Rittschof et al. (1992), and subsequently by other authors (Willemsen et al., 1998). This method is now standard practice for many antifouling screening of novel compounds.
Toxicity assays were modified from Rittschof et al. (1992). Stage II naupliar larvae used in tests were obtained from Balanus amphitrite adults collected from inter-tidal rock walls at Kranji mangrove, Singapore. Larvae were collected from a container of adults by attraction to a point source of light and transferred to 500 ml of fresh seawater. Next, larvae were re-concentrated with a fiber optic light and added to assays.
Duplicate assays were conducted in 2 ml glass vials (La Pha Pack® PN 11-14-0544) in 1 ml of filtered seawater for 22 to 24 hours. The assays were repeated for confirmation. There were two sets of controls, a blank control consisting of 3 tubes of seawater only, and DMSO control consisting of the equivalent dilution series with DMSO without compound). For the compounds, there were 3 tubes of each for each test concentration. The assay was initiated by addition of barnacle naupliar in 50 μl of seawater. After 22 to 24 hours of incubation at 25-27° C. solutions containing test animals were transferred to a Bogorov tray and scored as living or dead. Moribund larvae were scored as dead. Results were confirmed by repeating the assay. Data were combined and the concentration that caused 50% mortality (LD50) was calculated by probit analysis using a basic computer program (Libermann, 1983). If data were not appropriate for probit analysis, the LD50 was estimated from graphed data.

[2] = system: cyprids of Balanus amphitrite; experiment: barnacle settlement assay; type: in vivo; settings: for percentage of cyprids that settled: after 24 hours incubation, averaged over two trials; for IC50: Amphibalanus amphitrite, 24 h, Table 3(a), concentration that caused 50% settlement inhibition, 24 hours, cyprids, read-out: ED50 (the source's name)
Description: as §1, §2
Barnacle settlement assays were based on methodology from Rittschof et al. (1992). Barnacle larvae from field-collected adults were reared on an algal mixture of 1:1 v/v of Tetraselmis suecica and Chaetoceros muelleri at 25° C., at approximately 5×10^5 cells per ml density. On this regime, larvae metamorphose to cyprids in 5 days. These cyprids were aged at 4° C. for 2-3 days, and 45-70% settlement after 24 hours (Willemsen et al., 1998).
Settlement tests were conducted in 7 ml neutral glass vials (Samco® T1 03N1) 34 mm by 23 mm diameter, with 20-40 cyprids per well. Test solutions were made up to twice the required final concentration. 0.5 ml of test solution was added into each well, and cyprids were transferred into each well in 0.5 ml of seawater. Assays were done in triplicate. As before, there were two sets of controls, a blank control consisting 3 tubes of seawater only, and DMSO control consisting of the equivalent dilution series with DMSO without compound. After 24 hours, larvae that had attached and metamorphosed were enumerated and the result expressed as percentage settlement. Larvae not attached were scored as not settled. The assays were repeated and the concentration that caused 50% settlement inhibition (ED50) was determined by pro bit analysis using a basic computer program (Lieberman, 1983), or by estimation from graphed data.

[3] = system: marine bacteria strain S1; experiment: disc inhibition assay, strain S1; type: cell-based, Rhodovulum iodosum; settings: strain 1, 50 μg of compound per disc
Description: (§3) The disc inhibition assay was used. This assay is a conventional method routinely used for screening antibacterial compounds to determine degree of susceptibility to antibacterial compounds. The diameter of the zone of inhibition is proportional to the degree of susceptibility of the bacterial strain. The compounds were tested against 13 strains of marine bacteria isolated from Singapore coastal waters.
(§4) 13 strains of marine bacteria were isolated from fouling communities located in the coastal waters around Singapore. These were characterized in earlier studies and reported in Teo et al. (U.S. patent application Ser. No. 11/265,833) and Choong et al (in prep). In addition, four reference bacterial strains were added tested: Escherichia coli (Strain K12, ATCC 15222), E. coli (strain DH5a), Pseudomonas aeruginosa (strain LMG 12228; ATCC 15692) and P. putida (strain KT2440; ATCC 47054). All the bacteria were also tested against five antibiotics: ampicillin (AMP), tetracycline (TETR), erythromycin (ERY), chloramphenicol (CHL) and streptomycin (STREP).
(§5) Disks comprising the compounds to be tested were prepared as follows. The antibacterial assay, the pure compounds were made up to a concentration of 2 mgml^−1 in DMSO. 25 μl of the stock was pipetted onto each 6 mm sterile disc (Macherey-Nagel #484000) to obtain 50 μg of compound per disc. Equivalent volume of DMSO was used inoculated for the control.
(§6) For all disk inhibition assays, bacterial cultures were grown in marine broth (Pronadisa #1217.00). Sterile swabs dipped into the cultures were used to inoculate Marine Agar plates with a bacterial lawn by smearing the culture over the surface. After inoculating the plates, discs with antibiotics, pharmaceuticals or control blanks were placed on each plate. Each concentration of antibiotic or pharmaceutical was tested with two replicates. After the disks were placed on the agar surface, plates were incubated overnight in the dark at 35° C. After incubation, plates were examined for zones of inhibition or clearing around control and treated disks. The diameter of any zone of clearing or inhibition was measured using Vernier calipers. There were two replicates per treatment, and the average was taken.

[4] = system: marine bacteria strain S3; experiment: disc inhibition assay, strain S3; type: cell-based, Erythrobacter aquimaris; settings: strain 3, 50 μg of compound per disc
Description: as §3, §4, §5, §6

[5] = system: marine bacteria strain S4; experiment: disc inhibition assay, strain S4; type: cell-based, Bacillus algicola; settings: strain 4, 50 μg of compound per disc
Description: as §3, §4, §5, §6

[6] = system: marine bacteria strain S9; experiment: disc inhibition assay, strain S9; type: cell-based, Bacillus algicola; settings: for zone of inhibition at 50 µg/disc: Guptibacillus algicola, S9, 24 h
Description: as §3, §4, §5, §6

[7] = system: marine bacteria strain S10; experiment: disc inhibition assay, strain S10; type: cell-based, Halobacillus trueperi; settings: strain 10, 50 μg of compound per disc
Description: as §3, §4, §5, §6

[8] = system: marine bacteria strain S14; experiment: disc inhibition assay, strain S14; type: cell-based, Vibrio probioticus; settings: strain 14, 50 μg of compound per disc
Description: as §3, §4
(§7) Disks comprising the compounds to be tested were prepared as follows. The antibacterial assay, the pure compounds were made up to a concentration of 2 mgml^−1 in DMSO. […] Equivalent volume of DMSO was used inoculated for the control.
as §6

[9] = system: marine bacteria strain S16; experiment: disc inhibition assay, strain S16; type: cell-based, Pseudoalteromonas piscicida; settings: for zone of inhibition at 50 µg/disc: Pseudoalteromonas piscicida, S16, 24 h
Description: as §3, §4, §5, §6

[10] = system: marine bacteria strain S17; experiment: disc inhibition assay, strain S17; type: cell-based, Gordonia terrae; settings: strain 17, 50 μg of compound per disc
Description: as §3, §4, §5, §6

[11] = system: marine bacteria strain S18; experiment: disc inhibition assay, strain S18; type: cell-based, Microbacterium esteraromaticum; settings: for zone of inhibition at 50 µg/disc: Microbacterium esteraromaticum, S18, 24 h
Description: as §3, §4, §7, §6

[12] = system: marine bacteria strain S27; experiment: disc inhibition assay, strain S27; type: cell-based, Tenacibaculum lutimaris; settings: strain 27, 50 μg of compound per disc
Description: as §3, §4, §5, §6

[13] = system: marine bacteria strain S28; experiment: disc inhibition assay, strain S28; type: cell-based, Arthrobacter protophormial; settings: strain 28, 50 μg of compound per disc
Description: as §3, §4, §5, §6

[14] = system: marine bacteria strain S29; experiment: disc inhibition assay, strain S29; type: cell-based, Bacillus hwajinpoensis; settings: strain 29, 50 μg of compound per disc; for zone of inhibition at 50 µg/disc: Guptibacillus hwajinpoensis, S29, 24 h, read-out: zone of inhibition
Description: as §3, §4, §5, §6

[15] = system: marine bacteria strain S30; experiment: disc inhibition assay, strain S30; type: cell-based, Bacillus borophilicus; settings: strain 30, 50 μg of compound per disc
Description: as §3, §4, §5, §6

[16] = Table 3(b), highest concentration tested 25 μg/ml
[17] = strain 9, 50 μg of compound per disc, read-out: zone of inhibition
[18] = strain 16, 50 μg of compound per disc
[19] = strain 18, 50 μg of compound per disc
[20] = strain 9, 50 μg of compound per disc
[21] = strain 16, 50 μg of compound per disc, read-out: zone of inhibition

CCCCCCC(C(=O)N1CCCCC1)c1ccccc1 (stereo not shown) [Compound 12.11]
>25 µg/mL: LD50 [1, 16]

CCCCCCC(CCCC)C(=O)N1CCCCC1 (stereo not shown) [Compound 12.8]
0%: percentage of cyprids that settled ([2]; 5 ug/ml) | percentage of cyprids that settled ([2]; 25 ug/ml)
8.62%: percentage of cyprids that settled ([2]; 1 ug/ml)
3.35 µg/mL: LD50 [1, 16]
< 10 µg/mL: IC50 [2]
25.82%: percentage of cyprids that settled ([2]; 0.2 ug/ml)

CCCCC(CCCC)C(=O)N1CCCCC1 [Compound 12.2, 2-Butyl-1-(piperidin-1-yl)hexan-1-one]
8.37%: percentage of cyprids that settled ([2]; 5 ug/ml)
2 to 5 mm: zone of inhibition at 50 µg/disc ([5]; Guptibacillus algicola, S4, 24 h, read-out: zone of inhibition) | zone of inhibition at 50 µg/disc [6, 17] | zone of inhibition at 50 µg/disc ([7]; Halobacillus trueperi, S10, 24 h, read-out: zone of inhibition) | zone of inhibition at 50 µg/disc ([10]; Gordonia terrae, S17, 24 h, read-out: zone of inhibition) | zone of inhibition at 50 µg/disc ([12]; Tenacibaculum lutimaris, S27, 24 h, read-out: zone of inhibition) | zone of inhibition at 50 µg/disc ([13]; Arthrobacter, S28, 24 h, read-out: zone of inhibition) | zone of inhibition at 50 µg/disc [14] | zone of inhibition at 50 µg/disc ([15]; Bacillus, S30, 24 h, read-out: zone of inhibition)
8.42%: percentage of cyprids that settled ([2]; 1 ug/ml)
5 to 10 mm: zone of inhibition at 50 µg/disc ([4]; Qipengyuania aquimaris, S3, 24 h, read-out: zone of inhibition) | zone of inhibition at 50 µg/disc ([11]; strain 18, 50 μg of compound per disc, read-out: zone of inhibition)
0%: percentage of cyprids that settled ([2]; 25 ug/ml)
8.94%: percentage of cyprids that settled ([2]; 0.2 ug/ml)
−: zone of inhibition [3] | zone of inhibition [8] | zone of inhibition [9, 18]

CCCCCCC(CCCCCC)C(=O)N1CCCCC1 [Compound 12.12]
0.2 to 1 µg/mL: LD50 [1, 16]

O=C(C(c1ccccc1)c1ccccc1)N1CCC(CCO)CC1 [Compound 9.2]
> 50 µg/mL: IC50 [2]
49.24 µg/mL: LD50 ([1]; Table 3(a), concentration that caused 50% mortality, 22 to 24 hours, Stage II nauplii)

CN1CCC(O)(c2ccc(Cl)cc2)CC1 [Compound 4.6]
2 to 5 mm: zone of inhibition at 50 µg/disc [6, 17] | zone of inhibition at 50 µg/disc [9]
< 10 µg/mL: IC50 [2]
−: zone of inhibition [3] | zone of inhibition [4] | zone of inhibition [5] | zone of inhibition [7] | zone of inhibition [8] | zone of inhibition [10] | zone of inhibition [11, 19] | zone of inhibition [12] | zone of inhibition [13] | zone of inhibition [14] | zone of inhibition [15]

O=C(Cc1ccccc1)N1CCCCC1 [Compound 10.5]
−: zone of inhibition [3] | zone of inhibition [4] | zone of inhibition [5] | zone of inhibition [6, 20] | zone of inhibition [7] | zone of inhibition [8] | zone of inhibition [10] | zone of inhibition [11, 19] | zone of inhibition [12] | zone of inhibition [13] | zone of inhibition [14] | zone of inhibition [15]
5 to 10 mm: zone of inhibition at 50 µg/disc [9, 21]

CN(C)C(=O)C(CCN1CCCCC1)(c1ccccc1)c1ccccc1 [Compound 9.1, N, N-Dimethyl-2,2-diphenyl-4-(piperidin-1-yl)butanamide]
−: zone of inhibition [3] | zone of inhibition [4] | zone of inhibition [5] | zone of inhibition [7] | zone of inhibition [8] | zone of inhibition [9, 18] | zone of inhibition [10] | zone of inhibition [12] | zone of inhibition [13] | zone of inhibition [14] | zone of inhibition [15]
2 to 5 mm: zone of inhibition at 50 µg/disc [6] | zone of inhibition at 50 µg/disc [11]

CCCCCC(=O)N(C)C [Compound 11.2]
−: zone of inhibition [3] | zone of inhibition [4] | zone of inhibition [5] | zone of inhibition [6, 20] | zone of inhibition [7] | zone of inhibition [8] | zone of inhibition [10] | zone of inhibition [11, 19] | zone of inhibition [12] | zone of inhibition [13] | zone of inhibition [14] | zone of inhibition [15]
susceptible: antibacterial activity in words ([9]; strain S16)
2 to 5 mm: zone of inhibition at 50 µg/disc [9, 21]

O=C(C(CCCCC(O)CO)c1ccccc1)N1CCCCC1 (stereo not shown) [Compound 12.5]
−: zone of inhibition [3] | zone of inhibition [4] | zone of inhibition [5] | zone of inhibition [6, 20] | zone of inhibition [7] | zone of inhibition [8] | zone of inhibition [9, 18] | zone of inhibition [10] | zone of inhibition [11, 19] | zone of inhibition [12] | zone of inhibition [13] | zone of inhibition [15]
2 to 5 mm: zone of inhibition at 50 µg/disc [14]

— patent US20160311788A1, “Antifouling Compounds And Use Thereof” (National University of Singapore, priority 2008, published 2016)
